Some test systems named below: UACC-62 melanoma; KM12 colon; T-47D breast; BT-549 breast; HOP-92 NSCLC; SNB-19 CNS; 786-0 renal; M14 melanoma; SK-MEL-2 melanoma; PC-3 prostate.
What all share (test): NCI-60 cell line screen, 48 h

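Values below derive from 48-hour exposures of cells grown in 96-well plates, with endpoints linearly interpolated between the two concentrations bracketing the appropriate inhibition level. GI50: concentration for 50% inhibition of growth. The concentration for full growth arrest is given as TGI.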

As to `CN1CCN(Cc2ccc(Nc3ncc(Cl)c(Nc4ccccc4S(=O)(=O)N(C)C)n3)cc2)CC1`, the GI50 in the assay with UACC-62 melanoma is 0.0229 µM; in the assay with KM12 colon, 0.0244 µM; in the assay with T-47D breast it was 0.116 µM; with BT-549 breast it was 0.137 µM; in the assay with HOP-92 NSCLC it was 0.0999 µM; in the assay with SNB-19 CNS, 0.0529 µM. The GI50 in the assay with 786-0 renal is 0.0524 µM; in the assay on M14 melanoma it was 0.0608 µM; in the assay with SK-MEL-2 melanoma, 0.0458 µM; with PC-3 prostate it was 0.0731 µM. The TGI was 0.18 µM with UACC-62 melanoma; above 100 µM in the assay with KM12 colon; 0.965 µM in the assay on T-47D breast; 0.374 µM with BT-549 breast; 1.68 µM in the assay with HOP-92 NSCLC; 2.96 µM with SNB-19 CNS. The TGI with 786-0 renal is 1.28 µM; in the assay on M14 melanoma, 0.277 µM; in the assay on SK-MEL-2 melanoma, 0.172 µM; in the assay with PC-3 prostate it was above 100 µM.
In the case of `COC(=O)C#Cc1ccc([N+](=O)[O-])cc1`, the TGI came to 6.86 µM with UACC-62 melanoma; 3.9 µM in the assay with KM12 colon; 11.4 µM in the assay with T-47D breast; 3.34 µM in the assay on BT-549 breast; 4.11 µM in the assay on HOP-92 NSCLC; 8.47 µM in the assay on SNB-19 CNS. For the same molecule, the TGI with 786-0 renal was 7.04 µM; in the assay with M14 melanoma, 4.96 µM; in the assay on SK-MEL-2 melanoma, 7.98 µM; in the assay with PC-3 prostate, 13.1 µM.
`CN(C)CC1CCn2c(c(C3=C(c4cn(C)c5ccccc45)C(=O)NC3=O)c3ccccc32)C1` (stereo not given): the GI50 was 3.91 µM in the assay on UACC-62 melanoma; 4.14 µM in the assay with KM12 colon; 5.1 µM with T-47D breast; 5.3 µM in the assay with BT-549 breast; 1.78 µM in the assay with HOP-92 NSCLC; 4.84 µM in the assay on SNB-19 CNS. Also, the GI50 is 4.26 µM in the assay on 786-0 renal, 4.11 µM in the assay with M14 melanoma, 3.96 µM with SK-MEL-2 melanoma and 3.71 µM in the assay on PC-3 prostate. The TGI in the assay with UACC-62 melanoma was determined as 7.49 µM; with KM12 colon, 8.26 µM; in the assay with T-47D breast, 10.7 µM; in the assay on BT-549 breast, 12.2 µM; in the assay on HOP-92 NSCLC, 6.55 µM; with SNB-19 CNS, 10.4 µM. Moreover, the TGI in the assay with 786-0 renal stood at 8.17 µM; in the assay on M14 melanoma, 8.04 µM; in the assay with SK-MEL-2 melanoma, 7.82 µM; in the assay on PC-3 prostate it was 8.03 µM.
As for `COc1cccc2c1c1nc3cc(C)c(C)cc3nc1n2CCN(C)C`, the GI50 with UACC-62 melanoma was 1.7 µM; with KM12 colon, 1.83 µM; with T-47D breast, 2.76 µM; in the assay with BT-549 breast, 2.36 µM; in the assay on HOP-92 NSCLC it was 1.13 µM; with SNB-19 CNS, 2.04 µM. The GI50 with 786-0 renal was 1.35 µM; in the assay on M14 melanoma, 1.24 µM; with SK-MEL-2 melanoma, 1.85 µM; in the assay on PC-3 prostate, 1.73 µM. The TGI in the assay with UACC-62 melanoma worked out at 3.37 µM; with KM12 colon, 9.43 µM; with T-47D breast, 13.6 µM; with BT-549 breast, 10.2 µM; with HOP-92 NSCLC, 6.73 µM; with SNB-19 CNS, 14 µM. Besides, the TGI with 786-0 renal is 5.53 µM; with M14 melanoma, 3.07 µM; in the assay with SK-MEL-2 melanoma, 4.39 µM; in the assay on PC-3 prostate, 11.6 µM.
Regarding `Cc1ccc(C(=O)NC2CCCCC2)cc1-c1ccc(C(=O)NCC2CC2)cc1`, the GI50 is 17 µM with UACC-62 melanoma; above 22.5 µM with KM12 colon; 9.51 µM in the assay with T-47D breast; above 22.6 µM in the assay with BT-549 breast; 6.02 µM with HOP-92 NSCLC; above 25 µM in the assay on SNB-19 CNS. Also, the GI50 in the assay on 786-0 renal was above 25 µM; in the assay with M14 melanoma, above 25 µM; in the assay on SK-MEL-2 melanoma it was above 25 µM; with PC-3 prostate, above 22.8 µM. For the same molecule, the TGI in the assay on UACC-62 melanoma, in the assay on KM12 colon, in the assay on T-47D breast, with BT-549 breast, in the assay on HOP-92 NSCLC and in the assay on SNB-19 CNS was above 25 µM each time. Moreover, the TGI in the assay with 786-0 renal, in the assay with M14 melanoma, in the assay with SK-MEL-2 melanoma and in the assay with PC-3 prostate was above 25 µM each time.
As to `CO[C@H](C(=O)N[C@@H](CCCCNC(=O)OCc1ccccc1)C(=O)OC(C)(C)C)[C@@H]1Cc2cc3cc(OC4CC(OC5CC(O)C(O)C(C)O5)C(O)C(C)O4)c(C)c(O)c3c(O)c2C(=O)[C@H]1OC1CC(OC2CC(OC3CC(C)(O)C(O)C(C)O3)C(O)C(C)O2)C(O)C(C)O1` (stereo not given in full), the GI50 in the assay with UACC-62 melanoma was 0.369 µM; in the assay with KM12 colon, 0.603 µM; in the assay on T-47D breast, 0.958 µM; in the assay on BT-549 breast, 0.518 µM; in the assay on HOP-92 NSCLC it was 0.443 µM; with SNB-19 CNS, 0.52 µM. The GI50 was 0.563 µM in the assay with 786-0 renal, 0.879 µM in the assay on M14 melanoma, 0.942 µM in the assay with SK-MEL-2 melanoma and 0.7 µM with PC-3 prostate. The TGI in the assay with UACC-62 melanoma is 1.7 µM; in the assay on KM12 colon, 2.05 µM; in the assay on T-47D breast it was above 10 µM; with BT-549 breast, 1.81 µM; in the assay on HOP-92 NSCLC, 1.97 µM; with SNB-19 CNS, 2.6 µM. Further, the TGI in the assay with 786-0 renal amounted to 1.88 µM; in the assay on M14 melanoma, 2.48 µM; in the assay with SK-MEL-2 melanoma, 3.29 µM; in the assay on PC-3 prostate, 8.67 µM.
Turning to `CNC1C(O)CC(OC2C/C=C(\C)C/C(C)=C/C=C/CCC(C)CNC(=O)/C=C/C=C/C2C)OC1C` (stereo not given), the TGI amounted to 0.855 µM in the assay with UACC-62 melanoma; 1.02 µM in the assay with KM12 colon; 3.18 µM in the assay on T-47D breast; 2.58 µM with BT-549 breast; 2.11 µM in the assay with HOP-92 NSCLC; 8.31 µM in the assay on SNB-19 CNS. Moreover, the TGI in the assay with 786-0 renal is 0.294 µM; in the assay with M14 melanoma, 0.773 µM; in the assay with SK-MEL-2 melanoma, 2.82 µM; in the assay on PC-3 prostate, 2.07 µM.
Regarding `Cc1ccc(NC(=O)c2ccnc(N3CCCC3)c2)cc1-c1ccc(C(=O)NCC2CC2)cc1`, the GI50 with UACC-62 melanoma is above 25 µM; with KM12 colon it was above 25 µM; in the assay on T-47D breast it was above 13.5 µM; with BT-549 breast, above 25 µM; in the assay on HOP-92 NSCLC it was 8.2 µM; with SNB-19 CNS, above 25 µM. Besides, the GI50 with 786-0 renal, in the assay on M14 melanoma, in the assay on SK-MEL-2 melanoma and with PC-3 prostate was above 25 µM in each case. The TGI in the assay with UACC-62 melanoma, in the assay with KM12 colon, in the assay with T-47D breast, in the assay with BT-549 breast, in the assay on HOP-92 NSCLC and with SNB-19 CNS was above 25 µM in each case. Further, the TGI in the assay on 786-0 renal, in the assay with M14 melanoma, with SK-MEL-2 melanoma and in the assay with PC-3 prostate was above 25 µM in each case.

Values taken from PubChem BioAssay (NCI).
